For test [1], the target named is T1, short form of the GPR120 receptor (Homo sapiens, UniProt Q5NUL3).
T1 construct: host or cells: PathHunter CHO-K1 GPR120S β-Arrestin Cell Line
Briefly: Human GPR120 DiscoveRx PathHunter Beta-Arrestin assay, Procedure β-arrestin B. Type of test: cell-based.

A further test deals with C57bl/6J Mice. In words: GPR120 C57bl6 mouse IPGTT. The settings on record: male C57bl/6J mice, dosed 30 minutes prior to glucose (IP) 1.5 g/kg. Type of test: in vivo. On the procedure:
Male, C57bl/6J Mice were ordered in at 8 weeks of age from Jackson Labs. Individual mice weighed anywhere in the range of 25-30 grams on study day. The mice were fasted, with removal of food occurring at 7 am on the morning of the study. Animals were moved into the room at 10:00 am, to give them time to acclimate. Glucose (insulin syringes) was drawn up either the night before or the morning of the study. Glucose was dosed (IP) at 1.5 g/kg at 7.5 ml/kg (20% glucose straight TEKNOVA, 250 ml sterile bottle w/catalogue number G0525). Test compounds were kept spinning and were only drawn into the syringes prior to study commencement. Animals were bled via tail snip to determine basal glucose levels prior to dosing of treatments. An Ascensia BREEZE Blood Glucose Monitoring System by Bayer (using unique 10-test disks) was used for determining glucose levels. The bleeds started at approximately 12:45 pm and dosing started, at 1-minute intervals, immediately after. All groups were dosed 30 minutes prior to glucose administration at a dose volume of 10 ml/kg (the dose volume was calculated separately for each individual animal). Thirty minutes after the first dose animals were bled again for a second baseline, or T=0, and immediately dosed with glucose via an i.p. injection. The exact dose volume for glucose was also calculated separately for each individual animal. Glucose measurements were taken at −30 min prior to compound dose, at t=0 (immediately prior to glucose dose), and at 15, 30, 45, 60, 90 min post glucose dose.
Glucose values were entered into an Excel sheet and graphed in GraphPad Prism. The following were calculated from Prism: Change from −30 to 0 Baseline Glucose, Raw Glucose AUC −30 to 90 min, Delta Glucose AUC −30 to 90 min, Raw Glucose AUC 0 to 90 min, Delta Glucose AUC 0 to 90 min.

Each structure is given as a SMILES string.

T1 sequence (Q5NUL3 whole entry): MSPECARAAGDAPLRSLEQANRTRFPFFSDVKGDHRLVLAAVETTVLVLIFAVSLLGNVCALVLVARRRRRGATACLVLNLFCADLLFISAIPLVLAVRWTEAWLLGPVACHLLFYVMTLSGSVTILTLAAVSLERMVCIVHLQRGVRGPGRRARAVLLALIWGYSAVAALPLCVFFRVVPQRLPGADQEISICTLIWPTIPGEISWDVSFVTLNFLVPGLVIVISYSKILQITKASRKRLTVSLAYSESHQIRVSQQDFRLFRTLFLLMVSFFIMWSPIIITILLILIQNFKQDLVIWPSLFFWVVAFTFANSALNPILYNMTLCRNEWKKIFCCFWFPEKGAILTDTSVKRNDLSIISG
T1 sequence (P32121 whole entry partner): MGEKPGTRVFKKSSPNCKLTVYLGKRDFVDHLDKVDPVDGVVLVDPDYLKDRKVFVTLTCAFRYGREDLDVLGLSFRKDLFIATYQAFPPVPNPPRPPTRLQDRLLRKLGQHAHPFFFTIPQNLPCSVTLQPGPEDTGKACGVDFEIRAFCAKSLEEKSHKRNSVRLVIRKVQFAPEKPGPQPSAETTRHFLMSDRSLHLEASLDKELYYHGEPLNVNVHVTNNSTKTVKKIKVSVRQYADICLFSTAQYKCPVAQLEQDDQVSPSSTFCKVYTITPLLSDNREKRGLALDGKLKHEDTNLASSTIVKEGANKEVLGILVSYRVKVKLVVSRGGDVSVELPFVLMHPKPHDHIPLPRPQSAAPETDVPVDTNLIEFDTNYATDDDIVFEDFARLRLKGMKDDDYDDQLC

As for `Cc1ccc(C2=C(COc3ccc(CCC(=O)O)c(C)c3C)CCC2)cc1F` [Compound 80, 3-(4-((2-(3-fluoro-4-methylphenyl)cyclopent-1-en-1-yl)methoxy)-2,3-dimethylphenyl)Propanoic Acid], the EC50 in test [1] is 139 nM. Further, the “C57 IPGTT, Dose Response Results” value was found to be 10% with C57bl/6J Mice (3 mg/kg), 55% in the test on C57bl/6J Mice (10 mg/kg) and 81% with C57bl/6J Mice (30 mg/kg).

`Cc1ccc(C2=C(COc3ccc(CCC(=O)O)c(C)c3C)CCC2)cc1` [Compound 52, 3-[2,3-dimethyl-4-[[2-(p-tolyl)cyclopenten-1-yl]methoxy]phenyl]Propanoic Acid] returned an EC50 in test [1] of 63 nM. Besides, the “C57 IPGTT, Dose Response Results” value was 11% in the test with C57bl/6J Mice (3 mg/kg), 30% in the test with C57bl/6J Mice (10 mg/kg) and 92% with C57bl/6J Mice (30 mg/kg).

With `Cc1cc(CCC(=O)O)ccc1OCC1=C(c2ccc(Cl)cc2)CCCC1` [Compound 483, 3-[4-[[2-(4-chlorophenyl)cyclohexen-1-yl]methoxy]-3-methyl-phenyl]Propanoic Acid], the EC50 in test [1] worked out at 155 nM. In addition, the “C57 IPGTT, Dose Response Results” value in the test with C57bl/6J Mice (1 mg/kg) was determined as 23%; in the test with C57bl/6J Mice (3 mg/kg), 33%; in the test with C57bl/6J Mice (10 mg/kg), 51%.

In test [1], `CCc1ccc(C2=C(COc3ccc(CCC(=O)O)c(F)c3F)CCC2)cc1` [Compound 25, 3-(4-((2-(4-ethylphenyl)cyclopent-1-en-1-yl)methoxy)-2,3-difluorophenyl)Propanoic Acid] showed an EC50 of 89 nM. Also, the “C57 IPGTT, Dose Response Results” value in the test with C57bl/6J Mice (3 mg/kg) was 17%; in the test with C57bl/6J Mice (10 mg/kg), 22%; with C57bl/6J Mice (30 mg/kg), 39%.

Compound `Cc1ccccc1C1=C(COc2ccc(CCC(=O)O)c(C)c2C)CCC1` [Compound 132, 3-[2,3-dimethyl-4-[[2-(o-tolyl)cyclopenten-1-yl]methoxy]phenyl]Propanoic Acid] displayed a 50% effective concentration (EC50) in test [1] of 1800 nM.

Compound `Cc1ccc(C2=C(COc3c(F)cc(CCC(=O)O)cc3F)CCC2)cc1` [Compound 95, 3-(3,5-difluoro-4-((2-(p-tolyl)cyclopent-1-en-1-yl)methoxy)phenyl)Propanoic Acid] displayed a 50% effective concentration (EC50) in test [1] of 76 nM.

As for `Cc1ccc(C2=C(COc3ccc(CCC(=O)O)c(C)c3C)CCC2)cc1N` [Compound 134, 3-(4-((2-(3-amino-4-methylphenyl)cyclopent-1-en-1-yl)methoxy)-2,3-dimethylphenyl)Propanoic Acid], a half-maximal effect in test [1] (EC50) was put at 740 nM.

`Cc1ccc(C2=C(COc3ccc(CCC(=O)O)c(F)c3F)CCC2)cc1F` [Compound 78, 3-(2,3-difluoro-4-((2-(3-fluoro-4-methylphenyl)cyclopent-1-en-1-yl)methoxy)phenyl)Propanoic Acid]: the 50% effective concentration (EC50) in test [1] came out at 75 nM.

`Cc1ccc(C2=C(COc3ccc(CCC(=O)O)c(F)c3F)CCC2)cc1C` [Compound 83, 3-(4-((2-(3,4-dimethylphenyl)cyclopent-1-en-1-yl)methoxy)-2,3-difluorophenyl)Propanoic Acid] had a half-maximal effective concentration (EC50) in test [1] of 630 nM.

As for `Cc1ccc(C2=C(COc3ccc(CCC(=O)O)c(F)c3F)CCC2)cc1N` [Compound 93, 3-(4-((2-(3-amino-4-methylphenyl)cyclopent-1-en-1-yl)methoxy)-2,3-difluorophenyl)Propanoic Acid], the response in test [1] was half-maximal at 587 nM (EC50).

Regarding `O=C(O)CCc1ccc(OCC2=C(c3ccc(Cl)cc3)CCC2)cc1` [Compound 153, 3-[4-[[2-(4-chlorophenyl)cyclopenten-1-yl]methoxy]phenyl]Propanoic Acid], in test [1], a half-maximal effect (EC50) was put at 93 nM.

`Cc1c(CCC(=O)O)ccc(OCC2=C(c3ccc(Cl)nc3)CCC2)c1C` [Compound 158, 3-(4-((2-(6-chloropyridin-3-yl)cyclopent-1-en-1-yl)methoxy)-2,3-dimethylphenyl)Propanoic Acid]: the EC50 in test [1] is 324 nM.

Regarding `O=C(O)CCc1ccc(OCC2=C(c3ccc(Cl)cc3)CCC2)c(F)c1` [Compound 149, 3-[4-[[2-(4-chlorophenyl)cyclopenten-1-yl]methoxy]-3-fluoro-phenyl]Propanoic Acid], the EC50 in test [1] stood at 90 nM.

`Cc1ccc(C2=C(COc3c(F)cc(CCC(=O)O)cc3F)CCC2)cc1[N+](=O)[O-]` [Compound 109, 3-(3,5-difluoro-4-((2-(4-methyl-3-nitrophenyl)cyclopent-1-en-1-yl)methoxy)phenyl)Propanoic Acid] gave a 50% effective concentration (EC50) in test [1] of 2460 nM.

`Cc1c(CCC(=O)O)ccc(OCC2=C(c3ccccc3)CCCC2)c1C` [Compound 472, 3-[2,3-dimethyl-4-[(2-phenylcyclohexen-1-yl)methoxy]phenyl]Propanoic Acid]: the midpoint of the response in test [1], the EC50, lay at 488 nM.

In test [1], `O=C(O)CCc1ccc(OCC2=C(c3ccc(Cl)cc3)CCCC2)c(F)c1F` [Compound 513, 3-[4-[[2-(4-chlorophenyl)cyclohexen-1-yl]methoxy]-2,3-difluoro-phenyl]Propanoic Acid] displayed an EC50 of 137 nM.

Consider `O=C(O)CCc1ccc(OCC2=C(c3ccc(Cl)cc3)CCC2)c(F)c1F` [Compound 70, 3-[4-[[2-(4-chlorophenyl)cyclopenten-1-yl]methoxy]-2,3-difluoro-phenyl]Propanoic Acid], for which, in test [1], the midpoint of the response, the EC50, lay at 73 nM.

Turning to `COc1cc(F)cc(C2=C(COc3ccc(CCC(=O)O)c(C)c3C)CCC2)c1` [Compound 65, 3-[4-[[2-(3-fluoro-5-methoxy-phenyl)cyclopenten-1-yl]methoxy]-2,3-dimethyl-phenyl]Propanoic Acid], in test [1], a half-maximal response (EC50) required 1630 nM.

Regarding `Cc1ccc(C2=C(COc3ccc(CCC(=O)O)cc3C)CCC2)cn1` [Compound 102, 3-(3-methyl-4-((2-(6-methylpyridin-3-yl)cyclopent-1-en-1-yl)methoxy)phenyl)Propanoic Acid], in test [1], the EC50 was 365 nM.

With `Cc1ccc(C2=C(COc3ccc(CCC(=O)O)c(F)c3F)CCC2)cc1` [Compound 94, 3-(2,3-difluoro-4-((2-(p-tolyl)cyclopent-1-en-1-yl)methoxy)phenyl)Propanoic Acid], in test [1], the midpoint of the response, the EC50, lay at 47 nM.

The compound `O=C(O)CCc1c(F)c(F)c(OCC2=C(c3ccc(Cl)cc3)CCC2)c(F)c1F` [Compound 122, 3-[4-[[2-(4-chlorophenyl)cyclopenten-1-yl]methoxy]-2,3,5,6-tetrafluoro-phenyl]Propanoic Acid] yielded an EC50 in test [1] of 397 nM.

In turn, `Cc1c(CCC(=O)O)ccc(OCC2=C(c3ccccc3Cl)CCC2)c1C` [Compound 76, 3-[4-[[2-(2-chlorophenyl)cyclopenten-1-yl]methoxy]-2,3-dimethyl-phenyl]Propanoic Acid] returned an EC50 in test [1] of 281 nM.

Regarding `Cc1c(CCC(=O)O)ccc(OCC2=C(c3ccc(Cl)cc3)CCC(F)(F)C2)c1C` [Compound 468, 3-[4-[[2-(4-chlorophenyl)-5,5-difluoro-cyclohexen-1-yl]methoxy]-2,3-dimethyl-phenyl]Propanoic Acid], the EC50 in test [1] was 244 nM.

In test [1], `Cc1c(CCC(=O)O)ccc(OCC2=C(c3ccccc3Br)CCC2)c1C` [Compound 111, 3-[4-[[2-(2-bromophenyl)cyclopenten-1-yl]methoxy]-2,3-dimethyl-phenyl]Propanoic Acid] showed an EC50 of 2710 nM.

On to `Cc1c(CCC(=O)O)ccc(OCC2=C(c3cccc(Cl)c3)CCC2)c1C` [Compound 58, 3-[4-[[2-(3-chlorophenyl)cyclopenten-1-yl]methoxy]-2,3-dimethyl-phenyl]Propanoic Acid], for which the EC50 in test [1] was determined as 275 nM.

On to `COc1cccc(C2=C(COc3ccc(CCC(=O)O)c(C)c3C)CCC2)c1` [Compound 141, 3-[4-[[2-(3-methoxyphenyl)cyclopenten-1-yl]methoxy]-2,3-dimethyl-phenyl]Propanoic Acid], for which, in test [1], the EC50 stood at 1230 nM.

Compound `O=C(O)CCc1cc(F)c(OCC2=C(c3ccc(Cl)cc3)CCC2)c(F)c1` [Compound 60, 3-[4-[[2-(4-chlorophenyl)cyclopenten-1-yl]methoxy]-3,5-difluoro-phenyl]Propanoic Acid] yielded a 50% effective concentration (EC50) in test [1] of 359 nM.

Consider `Cc1c(CCC(=O)O)ccc(OCC2=C(c3cccnc3)CCC2)c1C` [Compound 108, 3-[2,3-dimethyl-4-[[2-(3-pyridyl)cyclopenten-1-yl]methoxy]phenyl]Propanoic Acid], for which, in test [1], the EC50 came to 807 nM.

Consider `Cc1c(CCC(=O)O)ccc(OCC2=C(c3ccccn3)CCC2)c1C` [Compound 147, 3-[2,3-dimethyl-4-[[2-(2-pyridyl)cyclopenten-1-yl]methoxy]phenyl]Propanoic Acid], for which the 50% effective concentration (EC50) in test [1] was 923 nM.

For `O=C(O)CCc1c(F)c(F)c(OCC2=C(c3ccc(Cl)cc3)CCCC2)c(F)c1F` [Compound 479, 3-[4-[[2-(4-chlorophenyl)cyclohexen-1-yl]methoxy]-2,3,5,6-tetrafluoro-phenyl]Propanoic Acid], the EC50 in test [1] came to 682 nM.

Source of the values: patent US11230526B1, “Cylcoalkenyl derivatives useful as agonists of the GPR120 and/or GPR40 receptors” (Janssen Pharmaceutica NV, priority 2018, dated 2022).
